Assays:
Details in all cases: 72 h
HepG2 [1] = assay: drug sensitivity score (DSS) for viability; higher = more toxic; extreme values may be limits of the assay
Calu-3 [2] = assay: as above
Vero E6 [3] = assay: as above
U2OS [4] = assay: as above
HepG2 [5] = assay: cell viability relative to DMSO; higher = less toxic
Calu-3 [6] = assay: as above
Vero E6 [7] = assay: as above
U2OS [8] = assay: as above
Caco-2 [9] = assay: as above
HepG2 [10] = assay: relative viability EC50 (midpoint between 100% and the lowest measured viability); higher = less toxic
Calu-3 [11] = assay: as above
Vero E6 [12] = assay: as above
U2OS [13] = assay: as above
Caco-2 [14] = assay: drug sensitivity score (DSS) for viability; higher = more toxic; extreme values may be limits of the assay

Row | Structure (SMILES) | drug sensitivity score (HepG2 [1]) | drug sensitivity score (Calu-3 [2]) | drug sensitivity score (Vero E6 [3]) | drug sensitivity score (U2OS [4]) | cell viability (HepG2 [5]; 1 nM) | cell viability (HepG2 [5]; 10 nM) | cell viability (HepG2 [5]; 100 nM) | cell viability (HepG2 [5]; 1000 nM) | cell viability (HepG2 [5]; 10000 nM) | cell viability (Calu-3 [6]; 1 nM) | cell viability (Calu-3 [6]; 10 nM) | cell viability (Calu-3 [6]; 100 nM) | cell viability (Calu-3 [6]; 1000 nM) | cell viability (Calu-3 [6]; 10000 nM) | cell viability (Vero E6 [7]; 1 nM) | cell viability (Vero E6 [7]; 10 nM) | cell viability (Vero E6 [7]; 100 nM) | cell viability (Vero E6 [7]; 1000 nM) | cell viability (Vero E6 [7]; 10000 nM) | cell viability (U2OS [8]; 1 nM) | cell viability (U2OS [8]; 10 nM) | cell viability (U2OS [8]; 100 nM) | cell viability (U2OS [8]; 1000 nM) | cell viability (U2OS [8]; 10000 nM) | cell viability (Caco-2 [9]; 1 nM) | cell viability (Caco-2 [9]; 10 nM) | cell viability (Caco-2 [9]; 100 nM) | cell viability (Caco-2 [9]; 1000 nM) | cell viability (Caco-2 [9]; 10000 nM) | relative viability EC50 (HepG2 [10]) | relative viability EC50 (Calu-3 [11]) | relative viability EC50 (Vero E6 [12]) | relative viability EC50 (U2OS [13]) | drug sensitivity score (Caco-2 [14])
1 | CCC[C@@H]1C[C@@H](C(=O)N[C@@H]([C@H]2O[C@H](SC)[C@H](OP(=O)(O)O)[C@@H](O)[C@H]2O)[C@H](C)Cl)N(C)C1 [Clindamycin phosphate] | 0 | 0 | 0 | 0 |  |  |  |  |  |  |  |  |  |  |  |  |  |  |  |  |  |  |  |  |  |  |  |  |  |  |  |  |  | 
2 | OC[C@H]1O[C@H](O[C@H]2[C@H](O)[C@@H](O)[C@H](O)O[C@@H]2CO)[C@H](O)[C@@H](O)[C@@H]1O [D-(+)-maltose] | 0 |  | 0 | 0 |  |  |  |  |  |  |  |  |  |  |  |  |  |  |  |  |  |  |  |  |  |  |  |  |  |  |  |  |  | 
3 | N[C@H](CO)C(=O)O [D-serine] | 0 | 0 | 0 | 0 |  |  |  |  |  |  |  |  |  |  |  |  |  |  |  |  |  |  |  |  |  |  |  |  |  |  |  |  |  | 
4 | Cc1cc(Nc2ncnc3ccc(-c4ccc(CNCCS(C)(=O)=O)o4)cc23)ccc1Oc1ccn2ncnc2c1 [HER2-Inhibitor-1] | 0.4 | 15 | 0 | 0.4 | 98.4% | 102% | 95.8% | 89.1% | 88.8% | 122% | 88.4% | 66.1% | 45.5% | 30.5% | 105% | 106% | 105% | 93.7% | 94.2% | 98.2% | 95.2% | 100% | 91.9% | 87.9% | 102% | 88.5% | 94.8% | 88.4% | 52.7% | > 10 µM | 0.124 µM | > 10 µM | > 10 µM | 4.2
5 | CCNC(=O)C[C@@H]1N=C(c2ccc(Cl)cc2)c2cc(OC)ccc2-n2c(C)nnc21 [I-BET-762] | 6.9 | 3 | 9.8 | 4.5 | 111% | 112% | 98.8% | 64.9% | 50.2% | 104% | 116% | 104% | 93.7% | 60.8% | 98.1% | 104% | 104% | 59.9% | 15.9% | 94.7% | 101% | 90% | 87.9% | 47.8% | 94.8% | 100% | 88.6% | 91.3% | 72.8% |  |  | 1.04 µM | 1.69 µM | 2
6 | C=CC(=O)c1ccc2ccccc2c1 [JAK3-inhibitor-V] | 0 | 0 | 0 |  | 106% | 108% | 98.8% | 110% | 110% | 110% | 97.3% | 111% | 94.8% | 96.6% | 99.5% | 107% | 99.8% | 104% | 101% |  |  |  |  |  |  |  |  |  |  | > 10 µM | > 10 µM | > 10 µM |  | 
7 | N#Cc1c(N)nc(SCc2ncc[nH]2)c(C#N)c1-c1ccc(O)cc1 [LUF-5834] | 0 |  |  |  | 102% | 115% | 103% | 105% | 98.6% |  |  |  |  |  |  |  |  |  |  |  |  |  |  |  |  |  |  |  |  | > 10 µM |  |  |  | 
8 | CC1(N)CCN(c2cnc(-c3cccc(Cl)c3Cl)c(N)n2)CC1 [SHP099] | 0.2 | 3.9 | 1.6 | 0 | 91.2% | 84.8% | 103% | 93.5% | 82% | 101% | 98.3% | 104% | 82.2% | 64.7% | 103% | 93.2% | 106% | 92.2% | 78.9% | 93.8% | 95.4% | 91.9% | 98.4% | 90.2% | 94.1% | 113% | 90.9% | 91.9% | 56.4% | > 10 µM |  | > 10 µM | > 10 µM | 3.6
9 | CC(C)Oc1ccc(-c2nn([C@@H](C)c3oc4ccc(F)cc4c(=O)c3-c3cccc(F)c3)c3ncnc(N)c23)cc1F [TGR-1202] | 0 |  |  |  | 101% | 108% | 108% | 111% | 98.2% |  |  |  |  |  |  |  |  |  |  |  |  |  |  |  |  |  |  |  |  | > 10 µM |  |  |  | 
10 | NC12CC3CC(CC(C3)C1)C2 [amantadine] | 0 | 0 | 0 | 0 |  |  |  |  |  |  |  |  |  |  |  |  |  |  |  |  |  |  |  |  |  |  |  |  |  |  |  |  |  | 
11 | N=C(N)NC(=O)c1nc(Cl)c(N)nc1N [amiloride] | 0 | 0 | 0 | 0 |  |  |  |  |  |  |  |  |  |  |  |  |  |  |  |  |  |  |  |  |  |  |  |  |  |  |  |  |  | 
12 | CCC[C@H]1C(=O)N2C(N(C)C)=Nc3ccc(C)cc3N2C1=O [azapropazone] | 0 | 0 | 0 | 0 |  |  |  |  |  |  |  |  |  |  |  |  |  |  |  |  |  |  |  |  |  |  |  |  |  |  |  |  |  | 
13 | OCCNC1CCCc2c1[nH]c1ccc(-c3ccccc3)cc21 (stereo not drawn) [casin] | 3.4 | 1.1 | 0.9 | 0.5 | 94.7% | 97.6% | 87.5% | 94.7% | 52.4% | 96.3% | 97.4% | 97.1% | 106% | 69.1% | 102% | 106% | 106% | 98.9% | 77.7% | 107% | 102% | 105% | 102% | 79% | 106% | 97.4% | 99.4% | 96.3% | 69.8% |  |  | > 10 µM | > 10 µM | 1.9
14 | N.N.[Cl][Pt][Cl] [cisplatin] | 0 | 0.2 | 0 | 0 |  |  |  |  |  |  |  |  |  |  |  |  |  |  |  |  |  |  |  |  |  |  |  |  |  |  |  |  |  | 
